Measurements published in patent US7875297B2, “Method for treating menorrhagia” (Ablation Products LLC, priority 2003, dated 2011).

System: beef muscle tissue (fillet mignon)
Test: Tissue necrosis with AgNO3 bearing beads placed on the surface of beef muscle tissue
Source text: The degree of necrosis was rated as follows: slight visible pitting of the tissue surface (+); moderate pitting of tissue surface with slight blackening of the tissue (++); significant pitting with moderate blackening of the tissue (+++); severe pitting with complete blackening of the tissue ([…]+); and severe pitting with complete blackening of the tissue, spreading beyond the point of contact (+++++).

## O=[N+]([O-])[O-].[Ag+] [AgNO3 Crystal, silver nitrate]
Time 5 minutes
  Tissue Necrosis (degree of necrosis of the tissue under each bead): + + +
Time 10 minutes
  Tissue Necrosis (degree of necrosis of the tissue under each bead): + + + +
Time 15 minutes
  Tissue Necrosis (degree of necrosis of the tissue under each bead): + + + + +
